Where a name gives a salt, the structure may show the parent alone.
Tests used:
[1] = parameters: species or system mongrel dogs; conditions: dog, in vivo
Description: (§1) In the present studies, the cardiovascular and intraocular pressure effects of Timoptic (Timolol) a Merck β-blocker marketed for treatment of glaucoma, and ±2-[(3,4-methylenedioxy)phenethyl]-5-[(3-carboxamido-4-hydroxy)-α-hydroxybenzyl]pyrrolidine were evaluated in anesthetized dogs to determine if the compounds exert systemic effects after ocular administration.
(§2) Mongrel dogs were anesthetized with sodium pentobarbital (36 mg/kg, i.v.). The trachea was intubated and the dog respired with room air if necessary (20 cc/kg, 16x/min). A femoral vein was cannulated for injection of drugs and a femoral artery for measurement of systolic blood pressure. Heart rate was recorded by a cardiotachometer triggered by the R-wave of a limb lead II ECG. Intraocular pressure measurements were made with a Digilab model 30-D Pneuma-Tonometer.
(§3) Timolol and ±2-[(3,4-methylenedioxy)phenethyl]-5-[(3-carboxamido-4-hydroxy)-α-hydroxybenzyl]pyrrolidine were dissolved in distilled water. Isoproterenol and norepinephrine were dissolved in normal saline.
(§4) Isoproterenol was administered i.v. at half-log interval doses from 0.0158 μg/kg to 0.5 μg/kg.

isoproterenol responses = system: isoproterenol responses; parameters: species or system mongrel dogs; conditions: dog, in vivo
Description: as §1, §2, §3, §4

[2] = cited from earlier work
intraocular pressure [3] = experiment: Intraocular pressure in anesthetized dogs after ocular administration; format: in vivo, mongrel dogs; conditions: anesthetized dog
Description: as §1, §2, §3, §4

[4] = topical; PDR; cited from earlier work
norepinephrine responses = system: norepinephrine responses; parameters: species or system mongrel dogs; conditions: dog, in vivo
Description: as §1, §2, §3, §4

eye = system: eye; parameters: species or system mongrel dogs; conditions: dog, in vivo
intraocular pressure [5] = experiment: Reduction of intraocular pressure in rabbits (pneuma-tonometer); format: in vivo, normal albino white New Zealand rabbits; conditions: rabbit
Description: Two groups of normal albino white New Zealand rabbits were used for this study.
Experimental group: 8 animals
At time 0, intraocular pressure of both eyes of each animal in control and experimental groups was determined.
All animals received the treatment either with saline (control group) or the tested compound (experimental group) immediately after 0 hour intraocular pressure reading. Control group received 50 μl of vehicle in both eyes. Experimental animals received 50 μl of vehicle in the left eyes and 50 μl of 1% solution of tested compound in the right eyes.
Intraocular pressure was measured at 30 minutes, 1, 2, and 4 hours.
The effects of tested drug on intraocular pressure of the rabbit was determined using a Digilab Model 30D pneuma-tonometer. Initial IOP readings were obtained in all animals after the administration of 50 μl of 0.5% Opthaine (proparacaine hydrochloride). A group of 4 rabbits served as controls and were treated with 50 μl of saline in both eyes. Eight additional rabbits received 50 μl of test drug in the right eye, and 50 μl of drug vehicle was administered in the contralateral left eye. IOP readings were made 30 minutes, 1 hours, 2 hours, and 4 hours after drug administration.
This procedure permitted the comparison of drug treated eye with the contralateral vehicle treated eye, and also with saline treated eye. For purposes of statistical analysis comparisons were made between the drug treated IOP values and vehicle treated contralateral eyes and also the saline treated IOP values.

[6] = administered to the eye at 0.5, 1 and 2%

## CC(C)(C)NC[C@H](O)COc1nsnc1N1CCOCC1 [Timolol]
[1]
  Effect on baseline blood pressure: marked decreases
  Effect on baseline heart rate: marked decreases
  Time post-dose to nadir of blood pressure: ≤ 90 min
  Time post-dose to nadir of heart rate: ≤ 90 min
Isoproterenol responses
  Inhibition of i.v. (systemic) isoproterenol challenges: markedly inhibited
  Systemic absorption following ocular administration (indicated by inhibition of isoproterenol challenges): readily absorbed systemically following ocular administration
[2]; congestive heart failure patients, ocular application
  Effect on cardiac failure: intensify cardiac failure in congestive heart failure patients
[2]; human, in vivo
  Systemic absorption after ocular application: absorbed systemically after ocular application
[2]; patients suffering from brochospastic disorders, ocular application
  Effect on bronchospasm: brochospasm in patients suffering from brochospastic disorders
Intraocular pressure [3]; administered to the eye at 0.5%
  Effect on intraocular pressure: significant decreases in intraocular pressure

## CC(C)(C)NC[C@H](O)COc1nsnc1N1CCOCC1 [timolol maleate]
[4]
  Systemic side effects when applied topically: can cause bronchospastic disease, bradyarrhythmia, cardiogenic shock, cardiac failure, etc.

## NC(=O)c1cc(C(O)C2CCC(CCc3ccc4c(c3)OCO4)N2)ccc1O (racemic) [±2-[(3,4-methylenedioxy)phenethyl]-5-[(3-carboxamido-4-hydroxy)-α-hydroxybenzyl]pyrrolidine]
Norepinephrine responses
  Dose relation of inhibition of norepinephrine responses: not dose related
  Inhibition of norepinephrine responses: some inhibition
[1]
  Baseline blood pressure compared with control dogs: differed little from control dogs
  Baseline heart rate compared with control dogs: differed little from control dogs
  Systemic effect (conclusion): modest, if any systemic effect
Isoproterenol responses
  Dose relation of inhibition of isoproterenol responses: not dose related
  Inhibition of isoproterenol responses: some inhibition
eye
  Eye irritation: no irritation to the eye
Intraocular pressure [5]; 0 time reading before dosing of 50 μl of 1% solution (baseline), control O.D. 18.8, contralateral vehicle eye 18
  Intraocular pressure, Experimental O.D. (right, treated eye): 17.6 mmHg
Intraocular pressure [5]; 1% solution
  Effect on intraocular pressure in right (treated) eyes: decreased significantly intraocular pressure
Intraocular pressure [5]; 50 μl of 1% solution, 30 min, control O.D. 18.3, contralateral vehicle eye 18.1
  Intraocular pressure, Experimental O.D. (right, treated eye): 18.9 mmHg
Intraocular pressure [5]; 50 μl of 1% solution, 1 hour, control O.D. 19.5, contralateral vehicle eye 19.8
  Intraocular pressure, Experimental O.D. (right, treated eye): 17.1 mmHg
Intraocular pressure [5]; 50 μl of 1% solution, 2 hours, control O.D. 19.8, contralateral vehicle eye 17.3
  Intraocular pressure, Experimental O.D. (right, treated eye): 14.4 mmHg
Intraocular pressure [5]; 50 μl of 1% solution, 4 hours, control O.D. 19.8, contralateral vehicle eye 18.8
  Intraocular pressure, Experimental O.D. (right, treated eye): 15.5 mmHg
Intraocular pressure [3]; [6]
  Decrease of IOP relative to Timolol: to a lesser extent than Timolol
  Effect on intraocular pressure: decreased IOP
Intraocular pressure [3]; at the doses tested
  Effect on intraocular pressure (conclusion): lowered intraocular pressure
